# Experimental data from patent publication US6664398B2, “Derivatives of erythromycin, their preparation process and their use as medicaments” (Aventis Pharma S.A., priority 1999, dated 2003).
# Key:
# Type in all cases: cell-based
# [1] = tested on: Haemophilus Influenzae 351HT3, 351CB12, 351CA1 and 351GR6; experiment: Activity on gram-negative bacterial strains
# Method: (§1) Method of dilutions in liquid medium A series of tubes is prepared in which the same quantity of nutritive sterile medium is distributed. Increasing quantities of the product to be studied are distributed into each tube, then each tube is sown with a bacterial strain. After incubation for twenty-four hours in a heating chamber at 37° C., the growth inhibition is evaluated by transillumination, which allows the minimal inhibitory concentrations (M.I.C.) to be determined, expressed in micrograms/cm^3. The following results were obtained with the product of Example 1: (reading after 24 hours)
# [2] = tested on: S. faecalis 02D2UC1; experiment: Method of dilutions in liquid medium (M.I.C.); conditions: reading after 24 hours, 37° C.
# Method: as §1
# [3] = tested on: S. epidermidis 012GO11i; experiment: Method of dilutions in liquid medium (M.I.C.); conditions: reading after 24 hours, 37° C.
# Method: as §1
# [4] = tested on: S. sanguis 02SGr10i; experiment: Method of dilutions in liquid medium (M.I.C.); conditions: reading after 24 hours, 37° C.
# Method: as §1
# [5] = tested on: S. agalactiae 02B1SJ1c; experiment: Method of dilutions in liquid medium (M.I.C.); conditions: reading after 24 hours, 37° C.
# Method: as §1
# [6] = tested on: S. pneumoniae 030RO1i; experiment: Method of dilutions in liquid medium (M.I.C.); conditions: reading after 24 hours, 37° C.
# Method: as §1
# [7] = tested on: S. faecium 02D3HT1; experiment: Method of dilutions in liquid medium (M.I.C.); conditions: reading after 24 hours, 37° C.
# Method: as §1
# [8] = tested on: S. pyogenes 02A1UC1; experiment: Method of dilutions in liquid medium (M.I.C.); conditions: reading after 24 hours, 37° C.
# Method: as §1
# [9] = tested on: S. pneumoniae 030SJ5i; experiment: Method of dilutions in liquid medium (M.I.C.); conditions: reading after 24 hours, 37° C.
# Method: as §1
# [10] = tested on: S. faecalis 02D2DU15c; experiment: Method of dilutions in liquid medium (M.I.C.); conditions: reading after 24 hours, 37° C.
# Method: as §1
# [11] = tested on: S. mitis 02MitCB1; experiment: Method of dilutions in liquid medium (M.I.C.); conditions: reading after 24 hours, 37° C.
# Method: as §1
# [12] = tested on: S. mitis 02MitGR16i; experiment: Method of dilutions in liquid medium (M.I.C.); conditions: reading after 24 hours, 37° C.
# Method: as §1
# [13] = tested on: Streptococcus gr.G 02GOGR5; experiment: Method of dilutions in liquid medium (M.I.C.); conditions: reading after 24 hours, 37° C.
# Method: as §1
# [14] = tested on: S. pneumoniae 030SJ1c; experiment: Method of dilutions in liquid medium (M.I.C.); conditions: reading after 24 hours, 37° C.
# Method: as §1
# [15] = tested on: S. aureus 011UC4; experiment: Method of dilutions in liquid medium (M.I.C.); conditions: reading after 24 hours, 37° C.
# Method: as §1
# [16] = tested on: S. pneumoniae 030GR20; experiment: Method of dilutions in liquid medium (M.I.C.); conditions: reading after 24 hours, 37° C.
# Method: as §1
# [17] = tested on: S. pneumoniae 032UC1; experiment: Method of dilutions in liquid medium (M.I.C.); conditions: reading after 24 hours, 37° C.
# Method: as §1
# [18] = tested on: S. aureus 011GO25i; experiment: Method of dilutions in liquid medium (M.I.C.); conditions: reading after 24 hours, 37° C.
# Method: as §1
# [19] = tested on: S. agalactiae 02B1HT1; experiment: Method of dilutions in liquid medium (M.I.C.); conditions: reading after 24 hours, 37° C.
# Method: as §1
# [20] = tested on: S. pneumoniae 030PW23c; experiment: Method of dilutions in liquid medium (M.I.C.); conditions: reading after 24 hours, 37° C.
# Method: as §1
# [21] = tested on: S. pneumoniae 030CR18c; experiment: Method of dilutions in liquid medium (M.I.C.); conditions: reading after 24 hours, 37° C.
# Method: as §1
smiles,measurement,setting,value
"CC[C@H]1OC(=O)[C@H](C)C(=O)[C@H](C)[C@@H](O[C@@H]2O[C@H](C)C[C@H](N(C)C)[C@H]2O)[C@](C)(OC)C[C@@H](C)C(=O)[C@H](C)[C@H]2N(CCCCn3ccc(-c4cccnc4)n3)C(=O)O[C@]12C [Example 1, 11,12-dideoxy-3-de[(2,6-dideoxy-3-C-methyl-3-O-methyl-α-L-ribohexopyranosyl)oxy]-6-O-methyl-3-oxo-12,11-[oxycarbonyl[[4-[3-(3-pyridinyl)-1H-pyrazol-1-yl]butyl]imino]]-erythromycin]",activity on gram-negative bacterial strains,[1],useful activity
same,minimal inhibitory concentrations (M.I.C.),[2],0.02 micrograms/cm^3
same,minimal inhibitory concentrations (M.I.C.),[3],0.040 micrograms/cm^3
same,minimal inhibitory concentrations (M.I.C.),[4],0.02 micrograms/cm^3
same,minimal inhibitory concentrations (M.I.C.),[5],0.050 micrograms/cm^3
same,minimal inhibitory concentrations (M.I.C.),[6],0.150 micrograms/cm^3
same,minimal inhibitory concentrations (M.I.C.),[7],0.02 micrograms/cm^3
same,minimal inhibitory concentrations (M.I.C.),[8],0.02 micrograms/cm^3
same,minimal inhibitory concentrations (M.I.C.),[9],0.040 micrograms/cm^3
same,minimal inhibitory concentrations (M.I.C.),[10],5.000 micrograms/cm^3
same,minimal inhibitory concentrations (M.I.C.),[11],0.02 micrograms/cm^3
same,minimal inhibitory concentrations (M.I.C.),[12],0.02 micrograms/cm^3
same,minimal inhibitory concentrations (M.I.C.),[13],0.02 micrograms/cm^3
same,minimal inhibitory concentrations (M.I.C.),[14],0.150 micrograms/cm^3
same,minimal inhibitory concentrations (M.I.C.),[15]; S. aureus 011UC4+ 50% serum,0.600 micrograms/cm^3
same,minimal inhibitory concentrations (M.I.C.),[15]; S. aureus 011UC4,0.040 micrograms/cm^3
same,minimal inhibitory concentrations (M.I.C.),[16],0.02 micrograms/cm^3
same,minimal inhibitory concentrations (M.I.C.),[17],0.02 micrograms/cm^3
same,minimal inhibitory concentrations (M.I.C.),[18],0.600 micrograms/cm^3
same,minimal inhibitory concentrations (M.I.C.),[19],0.02 micrograms/cm^3
same,minimal inhibitory concentrations (M.I.C.),[20],0.02 micrograms/cm^3
same,minimal inhibitory concentrations (M.I.C.),[21],0.300 micrograms/cm^3
